Assay results published in US20250176599A1, “FLAVOR COMPOSITION AND FOOD AND BEVERAGE” (TAKASAGO INTERNATIONAL CORPORATION, priority 2021, published 2025).

Columns and labels:
[1] = Sensory evaluation of aqueous solution I containing (E)-2-nonenal 1 ppb: off-flavor intensity and masking component intensity
Experimental: (§1) In ion-exchanged water, each degradation component was added to achieve the concentrations listed in Table 1, and aqueous solutions I to VI containing these degradation components were prepared.
(§2) For the aforementioned aqueous solutions containing degradation components, nootkatone was added at the concentrations listed in Table 2 to confirm the intensity of the off-flavor (masking effect) in each sample and the intensity of the masking component itself (the impact on the flavor of the food and/or beverage itself).
(§3) The test was conducted as follows. Eight experienced panelists were selected to conduct a sensory evaluation. The intensity of the off-flavor of the aqueous solution containing the degradation components derived from unsaturated fatty acids, without added masking components, was set as “Evaluation: 4.” The ion-exchanged water free of any degradation components was set as “Evaluation: 0.” The intensity of the off-flavor (masking effect) of each sample was then relatively evaluated according to the following evaluation criteria.
(§4) • Off-flavor is strongly sensed: 4 points • Off-flavor is sensed: 3 points • Off-flavor is slightly sensed: 2 points • Off-flavor is barely sensed: 1 point • Off-flavor is not sensed at all: 0 points
(§5) Also, the intensity of the masking components (impact on the flavor of the food and/or beverage itself) was absolutely evaluated according to the following evaluation criteria.
(§6) • Masking component is strongly sensed: 4 points • Masking component is sensed: 3 points • Masking component is slightly sensed: 2 points • Masking component is barely sensed: 1 point • Masking component is not sensed at all: 0 points

[2] = Sensory evaluation of aqueous solution II containing (E)-2-octenal 10 ppb: off-flavor intensity and masking component intensity
Experimental: as §1, §2, §3, §4, §5, §6

[3] = Sensory evaluation of aqueous solution III containing 1-octen-3-one 1 ppb: off-flavor intensity and masking component intensity
Experimental: as §1, §2, §3, §4, §5, §6

[4] = Sensory evaluation of aqueous solution IV containing 1,5-octadien-3-one 100 ppt: off-flavor intensity and masking component intensity
Experimental: as §1, §2, §3, §4, §5, §6

[5] = Sensory evaluation of aqueous solution V containing 1-octen-3-ol 10 ppb: off-flavor intensity and masking component intensity
Experimental: as §1, §2, §3, §4, §5, §6

[6] = Sensory evaluation of aqueous solution VI containing 1,5-octadien-3-ol 10 ppb: off-flavor intensity and masking component intensity
Experimental: as §1, §2, §3, §4, §5, §6

[7] = Overall conclusion of the sensory evaluation across aqueous solutions I to VI
Experimental: as §1, §2, §3, §4, §5, §6

[8] = 1 ppb added, average panel score
[9] = 1 ppm added, average panel score
[10] = 10 ppb added, average panel score
[11] = 10 ppm added, average panel score
[12] = 50 ppm added, average panel score
[13] = 100 ppb added, average panel score
[14] = 100 ppm added, average panel score
[15] = 100 ppt added, average panel score
[16] = aqueous solution IV, 1 ppb added, average panel score
[17] = aqueous solution IV, 1 ppm added, average panel score
[18] = aqueous solution IV, 10 ppb added, average panel score
[19] = aqueous solution IV, 10 ppm added, average panel score
[20] = aqueous solution IV, 50 ppm added, average panel score
[21] = aqueous solution IV, 100 ppb added, average panel score
[22] = aqueous solution IV, 100 ppm added, average panel score
[23] = aqueous solution IV, 100 ppt added, average panel score
[24] = aqueous solution VI, 1 ppb added, average panel score
[25] = aqueous solution VI, 1 ppm added, average panel score
[26] = aqueous solution VI, 10 ppb added, average panel score
[27] = aqueous solution VI, 10 ppm added, average panel score
[28] = aqueous solution VI, 50 ppm added, average panel score
[29] = aqueous solution VI, 100 ppb added, average panel score
[30] = aqueous solution VI, 100 ppm added, average panel score
[31] = aqueous solution VI, 100 ppt added, average panel score

C=C(C)[C@@H]1CCC2=CC(=O)C[C@@H](C)[C@]2(C)C1 [Nootkatone, nootkatone]
Off-Flavor Intensity ([1]; 1 ppb added, (E)-2-nonenal 1 ppb, average score 0-4): 2.8 points | Off-Flavor Intensity ([1]; 1 ppm added, (E)-2-nonenal 1 ppb, average score 0-4): 1.8 points | Off-Flavor Intensity ([1]; 5 ppm added, (E)-2-nonenal 1 ppb, average score 0-4): 1.1 points | Off-Flavor Intensity ([1]; 10 ppb added, (E)-2-nonenal 1 ppb, average score 0-4): 2.4 points | Off-Flavor Intensity ([1]; 10 ppm added, (E)-2-nonenal 1 ppb, average score 0-4): 0.8 points | Off-Flavor Intensity ([1]; 10 ppt added, (E)-2-nonenal 1 ppb, average score 0-4): 3.4 points | Off-Flavor Intensity ([1]; 100 ppb added, (E)-2-nonenal 1 ppb, average score 0-4): 2.1 points | Off-Flavor Intensity ([1]; 100 ppt added, (E)-2-nonenal 1 ppb, average score 0-4): 3.3 points | Off-Flavor Intensity ([2]; 1 ppb added, (E)-2-octenal 10 ppb, average score 0-4): 2.6 points | Off-Flavor Intensity ([2]; 1 ppm added, (E)-2-octenal 10 ppb, average score 0-4): 1.5 points | Off-Flavor Intensity ([2]; 5 ppm added, (E)-2-octenal 10 ppb, average score 0-4): 0.6 points | Off-Flavor Intensity ([2]; 10 ppb added, (E)-2-octenal 10 ppb, average score 0-4): 2.5 points | Off-Flavor Intensity ([2]; 10 ppm added, (E)-2-octenal 10 ppb, average score 0-4): 0.4 points | Off-Flavor Intensity ([2]; 10 ppt added, (E)-2-octenal 10 ppb, average score 0-4): 3.5 points | Off-Flavor Intensity ([2]; 100 ppb added, (E)-2-octenal 10 ppb, average score 0-4): 1.9 points | Off-Flavor Intensity ([2]; 100 ppt added, (E)-2-octenal 10 ppb, average score 0-4): 3.1 points | Off-Flavor Intensity ([3]; 1 ppb added, 1-octen-3-one 1 ppb, average score 0-4): 2.6 points | Off-Flavor Intensity ([3]; 1 ppm added, 1-octen-3-one 1 ppb, average score 0-4): 1.6 points | Off-Flavor Intensity ([3]; 5 ppm added, 1-octen-3-one 1 ppb, average score 0-4): 1.1 points | Off-Flavor Intensity ([3]; 10 ppb added, 1-octen-3-one 1 ppb, average score 0-4): 2.3 points | Off-Flavor Intensity ([3]; 10 ppm added, 1-octen-3-one 1 ppb, average score 0-4): 0.9 points | Off-Flavor Intensity ([3]; 10 ppt added, 1-octen-3-one 1 ppb, average score 0-4): 3.4 points | Off-Flavor Intensity ([3]; 100 ppb added, 1-octen-3-one 1 ppb, average score 0-4): 2.1 points | Off-Flavor Intensity ([3]; 100 ppt added, 1-octen-3-one 1 ppb, average score 0-4): 3.1 points | Off-Flavor Intensity ([4]; 1 ppb added, aqueous solution IV, 1,5-octadien-3-one 100 ppt, average score 0-4): 3.1 points | Off-Flavor Intensity ([4]; 1 ppm added, aqueous solution IV, 1,5-octadien-3-one 100 ppt, average score 0-4): 2.0 points | Off-Flavor Intensity ([4]; 5 ppm added, aqueous solution IV, 1,5-octadien-3-one 100 ppt, average score 0-4): 1.3 points | Off-Flavor Intensity ([4]; 10 ppb added, aqueous solution IV, 1,5-octadien-3-one 100 ppt, average score 0-4): 2.9 points | Off-Flavor Intensity ([4]; 10 ppm added, aqueous solution IV, 1,5-octadien-3-one 100 ppt, average score 0-4): 0.9 points | Off-Flavor Intensity ([4]; 10 ppt added, aqueous solution IV, 1,5-octadien-3-one 100 ppt, average score 0-4): 3.6 points | Off-Flavor Intensity ([4]; 100 ppb added, aqueous solution IV, 1,5-octadien-3-one 100 ppt, average score 0-4): 2.4 points | Off-Flavor Intensity ([4]; 100 ppt added, aqueous solution IV, 1,5-octadien-3-one 100 ppt, average score 0-4): 3.5 points | Off-Flavor Intensity ([5]; 1 ppb added, 1-octen-3-ol 10 ppb, average score 0-4): 2.5 points | Off-Flavor Intensity ([5]; 1 ppm added, 1-octen-3-ol 10 ppb, average score 0-4): 1.5 points | Off-Flavor Intensity ([5]; 5 ppm added, 1-octen-3-ol 10 ppb, average score 0-4): 0.9 points | Off-Flavor Intensity ([5]; 10 ppb added, 1-octen-3-ol 10 ppb, average score 0-4): 2.5 points | Off-Flavor Intensity ([5]; 10 ppm added, 1-octen-3-ol 10 ppb, average score 0-4): 0.5 points | Off-Flavor Intensity ([5]; 10 ppt added, 1-octen-3-ol 10 ppb, average score 0-4): 3.4 points | Off-Flavor Intensity ([5]; 100 ppb added, 1-octen-3-ol 10 ppb, average score 0-4): 1.8 points | Off-Flavor Intensity ([5]; 100 ppt added, 1-octen-3-ol 10 ppb, average score 0-4): 2.9 points | Off-Flavor Intensity ([6]; 1 ppb added, aqueous solution VI, 1,5-octadien-3-ol 10 ppb, average score 0-4): 2.5 points | Off-Flavor Intensity ([6]; 1 ppm added, aqueous solution VI, 1,5-octadien-3-ol 10 ppb, average score 0-4): 1.1 points | Off-Flavor Intensity ([6]; 5 ppm added, aqueous solution VI, 1,5-octadien-3-ol 10 ppb, average score 0-4): 0.6 points | Off-Flavor Intensity ([6]; 10 ppb added, aqueous solution VI, 1,5-octadien-3-ol 10 ppb, average score 0-4): 2.1 points | Off-Flavor Intensity ([6]; 10 ppm added, aqueous solution VI, 1,5-octadien-3-ol 10 ppb, average score 0-4): 0.6 points | Off-Flavor Intensity ([6]; 10 ppt added, aqueous solution VI, 1,5-octadien-3-ol 10 ppb, average score 0-4): 3.1 points | Off-Flavor Intensity ([6]; 100 ppb added, aqueous solution VI, 1,5-octadien-3-ol 10 ppb, average score 0-4): 1.5 points | Off-Flavor Intensity ([6]; 100 ppt added, aqueous solution VI, 1,5-octadien-3-ol 10 ppb, average score 0-4): 3.0 points | concentration that masks the off-flavor and does not affect the flavor of the food and/or beverage itself, lower limit [7]: ≥ 100 ppt | concentration that masks the off-flavor and does not affect the flavor of the food and/or beverage itself, upper limit [7]: ≤ 1 ppm

CC1CCC(C(C)C)C(OCCO)C1 (stereo not shown) [2-menthoxyethanol]
Masking Component Intensity [1, 8]: 0.5 | Off-Flavor Intensity [1, 8]: 3.4 | Masking Component Intensity [1, 9]: 1.6 | Off-Flavor Intensity [1, 9]: 2.5 | Masking Component Intensity [1, 10]: 0.8 | Off-Flavor Intensity [1, 10]: 3.0 | Masking Component Intensity [1, 11]: 2.3 | Off-Flavor Intensity [1, 11]: 1.8 | Masking Component Intensity [1, 12]: 3.5 | Off-Flavor Intensity [1, 12]: 1.4 | Masking Component Intensity [1, 13]: 1.3 | Off-Flavor Intensity [1, 13]: 2.8 | Masking Component Intensity [1, 14]: 3.8 | Off-Flavor Intensity [1, 14]: 1.0 | Masking Component Intensity [1, 15]: 0.3 | Off-Flavor Intensity [1, 15]: 3.8 | Masking Component Intensity [2, 8]: 0.8 | Off-Flavor Intensity [2, 8]: 3.3 | Masking Component Intensity [2, 9]: 2.0 | Off-Flavor Intensity [2, 9]: 2.4 | Masking Component Intensity [2, 10]: 1.1 | Off-Flavor Intensity [2, 10]: 2.9 | Masking Component Intensity [2, 11]: 2.6 | Off-Flavor Intensity [2, 11]: 2.0 | Masking Component Intensity [2, 12]: 3.4 | Off-Flavor Intensity [2, 12]: 1.5 | Masking Component Intensity [2, 13]: 1.6 | Off-Flavor Intensity [2, 13]: 2.5 | Masking Component Intensity [2, 14]: 3.8 | Off-Flavor Intensity [2, 14]: 1.3 | Masking Component Intensity [2, 15]: 0.5 | Off-Flavor Intensity [2, 15]: 3.4 | Masking Component Intensity [3, 8]: 0.8 | Off-Flavor Intensity [3, 8]: 3.1 | Masking Component Intensity [3, 9]: 1.9 | Off-Flavor Intensity [3, 9]: 2.4 | Masking Component Intensity [3, 10]: 1.1 | Off-Flavor Intensity [3, 10]: 2.9 | Masking Component Intensity [3, 11]: 2.5 | Off-Flavor Intensity [3, 11]: 2.3 | Masking Component Intensity [3, 12]: 3.8 | Off-Flavor Intensity [3, 12]: 2.0 | Masking Component Intensity [3, 13]: 1.8 | Off-Flavor Intensity [3, 13]: 2.5 | Masking Component Intensity [3, 14]: 3.9 | Off-Flavor Intensity [3, 14]: 2.0 | Masking Component Intensity [3, 15]: 0.6 | Off-Flavor Intensity [3, 15]: 3.3 | Masking Component Intensity [4, 16]: 0.5 | Off-Flavor Intensity [4, 16]: 3.4 | Masking Component Intensity [4, 17]: 2.3 | Off-Flavor Intensity [4, 17]: 2.4 | Masking Component Intensity [4, 18]: 1.0 | Off-Flavor Intensity [4, 18]: 3.0 | Masking Component Intensity [4, 19]: 2.6 | Off-Flavor Intensity [4, 19]: 2.3 | Masking Component Intensity [4, 20]: 3.4 | Off-Flavor Intensity [4, 20]: 1.9 | Masking Component Intensity [4, 21]: 1.6 | Off-Flavor Intensity [4, 21]: 2.5 | Masking Component Intensity [4, 22]: 3.9 | Off-Flavor Intensity [4, 22]: 1.8 | Masking Component Intensity [4, 23]: 0.1 | Off-Flavor Intensity [4, 23]: 3.5 | Masking Component Intensity [5, 8]: 0.4 | Off-Flavor Intensity [5, 8]: 3.1 | Masking Component Intensity [5, 9]: 1.8 | Off-Flavor Intensity [5, 9]: 2.3 | Masking Component Intensity [5, 10]: 0.5 | Off-Flavor Intensity [5, 10]: 2.6 | Masking Component Intensity [5, 11]: 2.6 | Off-Flavor Intensity [5, 11]: 2.3 | Masking Component Intensity [5, 12]: 3.5 | Off-Flavor Intensity [5, 12]: 1.8 | Masking Component Intensity [5, 13]: 1.4 | Off-Flavor Intensity [5, 13]: 2.5 | Masking Component Intensity [5, 14]: 3.8 | Off-Flavor Intensity [5, 14]: 1.6 | Masking Component Intensity [5, 15]: 0.1 | Off-Flavor Intensity [5, 15]: 3.3 | Masking Component Intensity [6, 24]: 0.6 | Off-Flavor Intensity [6, 24]: 3.3 | Masking Component Intensity [6, 25]: 2.0 | Off-Flavor Intensity [6, 25]: 2.0 | Masking Component Intensity [6, 26]: 1.0 | Off-Flavor Intensity [6, 26]: 2.8 | Masking Component Intensity [6, 27]: 2.5 | Off-Flavor Intensity [6, 27]: 1.9 | Masking Component Intensity [6, 28]: 3.8 | Off-Flavor Intensity [6, 28]: 1.5 | Masking Component Intensity [6, 29]: 1.8 | Off-Flavor Intensity [6, 29]: 2.6 | Masking Component Intensity [6, 30]: 4.0 | Off-Flavor Intensity [6, 30]: 1.3 | Masking Component Intensity [6, 31]: 0.3 | Off-Flavor Intensity [6, 31]: 3.4 | concentration that masks the off-flavor and does not affect the flavor of the food and/or beverage itself, lower limit [7]: ≥ 10 ppb | concentration that masks the off-flavor and does not affect the flavor of the food and/or beverage itself, upper limit [7]: ≤ 10 ppm
